According to patent US12247015B2, “3-amino-4H-benzo[e][1,2,4]thiadiazine 1,1-dioxide derivatives as inhibitors of MRGX2” (Solent Therapeutics, LLC, priority 2019, dated 2025):

Assays:
[1] = molecular target: hMRGX2 (CHO-K1 cells overexpressing MRGX2) (Homo sapiens (Human), UniProt Q96LB1); experiment: In vitro inhibition (EC50) of intracellular calcium flux, FLIPR Tetra, substance P stimulation; type: cell-based; conditions: stimulated with MRGX2 ligand substance P, FLIPR Calcium 5, read-out: hMRGX2 Cellular Potency (pEC50) (converted)
hMRGX2 (CHO-K1 cells overexpressing MRGX2), sequence (Q96LB1 whole entry): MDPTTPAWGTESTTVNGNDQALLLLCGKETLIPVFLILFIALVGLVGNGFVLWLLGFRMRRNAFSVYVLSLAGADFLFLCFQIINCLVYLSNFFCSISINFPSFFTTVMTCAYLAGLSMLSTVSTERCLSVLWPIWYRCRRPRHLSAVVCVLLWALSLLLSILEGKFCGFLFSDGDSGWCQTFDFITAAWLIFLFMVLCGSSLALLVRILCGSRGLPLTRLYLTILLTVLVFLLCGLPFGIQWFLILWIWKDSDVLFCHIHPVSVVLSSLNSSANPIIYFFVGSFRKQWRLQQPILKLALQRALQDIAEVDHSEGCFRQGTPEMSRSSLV
In short: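 CHO-K1 cells overexpressing human MRGX2, loaded with Calcium 5 dye for 30 min at 37 °C, then given compound (11-point, top 10 μM).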

human MRGX2 receptor = human MRGX2 receptor (Homo sapiens (Human), UniProt Q96LB1); experiment: In vitro radioligand binding assay (Kd); conditions: membrane from SF9 cells overexpressing human MRGX2; 3H-labeled ligand; pH 7.4, room temperature, 60 minutes
human MRGX2 receptor, sequence (Q96LB1 whole entry): as above
Procedure: In vitro Radioligand Binding Assay (Kd)
Equilibrium dissociation constants, Kd, for many of the compounds described in the Examples section (“test compounds”) are determined in the presence cellular membrane prepared from SF9 cell lines overexpressing the human MRGX2 receptor. The assay is carried out in a 96-well plate (Greiner V-Bottom #651201). […] The assay mixtures, which comprise MRGX2 receptor, radiolabeled ligand and test compound, are incubated at room temperature (˜22° C.) for 60 minutes to reach equilibrium. After incubation, the assay mixtures are collected on a filter mat (Filtermat A, Perkin Elmer) using a cell harvester (Harvester 96, TOMTEC). The filter mat is completely dried. A solid scintillant (Meltilex, Perkin Elmer) is added to each filter membrane and the level of radioactivity (“Signal”) from each well (assay mixture) is recorded using a scintillation counter (Trilux Microbeta, PerkinElmer). Kd is determined by curve-fitting the dose response data ([I], Signal) for each set of samples to the equation,
[formula] where [I] is the concentration of the test compound. The data are reported as pKd

| Structure (SMILES) | EC50 [1] | hMRGX2 Binding Affinity (pKd) (human MRGX2 receptor) |
| --- | --- | --- |
| O=S1(=O)N=C(NCC2CC2)Nc2c(-c3cccc(F)c3Cl)cc(F)cc21 [Example 7, 5-(2-chloro-3-fluorophenyl)-3-((cyclopropylmethyl)amino)-7-fluoro-4H-benzo[e][1,2,4]thiadiazine 1,1-dioxide] | 23.3 nM | 7.27 |
| CCc1ccc(NC2=NS(=O)(=O)c3cccc(-c4cnn(C)c4)c3N2)cc1 [Example 136, 3-((4-ethylphenyl)amino)-5-(1-methyl-1H-pyrazol-4-yl)-4H-benzo[e][1,2,4]thiadiazine 1,1-dioxide] | 119 nM | 6.535 |
| COCCNC1=NS(=O)(=O)c2cc(F)cc(-c3cccc(F)c3Cl)c2N1 [Example 4, 5-(2-chloro-3-fluorophenyl)-7-fluoro-3-((2-methoxyethyl)amino)-4H-benzo[e][1,2,4]thiadiazine 1,1-dioxide] | 15.4 nM | 6.975 |
| Cc1ccccc1-c1cccc2c1NC(NCc1ccco1)=NS2(=O)=O [Example 137, 3-((furan-2-ylmethyl)amino)-5-(o-tolyl)-4H-benzo[e][1,2,4]thiadiazine 1,1-dioxide] | 79.1 nM | 6.54 |
| Cc1ccccc1-c1cccc2c1NC(NCc1ccccn1)=NS2(=O)=O [Example 162, 3-((pyridin-2-ylmethyl)amino)-5-(o-tolyl)-4H-benzo[e][1,2,4]thiadiazine 1,1-dioxide] | 100 nM | 6.51 |
| Cc1nn(C)cc1-c1cccc2c1NC(Nc1ccc(C(C)C)cc1)=NS2(=O)=O [Example 103, 5-(1,3-dimethyl-1H-pyrazol-4-yl)-3-((4-isopropylphenyl)amino)-4H-benzo[e][1,2,4]thiadiaazne 1,1-dioxide] | 51.2 nM | 6.755 |
| Cc1c(-c2cccc3c2NC(Nc2ccc(C(C)C)cc2)=NS3(=O)=O)cnn1C [Example 114, 5-(1,5-dimethyl-1H-pyrazol-4-yl)-3-((4-isopropylphenyl)amino)-4H-benzo[e][1,2,4]thiadiazine 1,1-dioxide] | 262 nM | 6.095 |

Further lines, results first:

| EC50 [1] | hMRGX2 Binding Affinity (pKd) (human MRGX2 receptor) | Structure (SMILES) |
| --- | --- | --- |
| 24.1 nM | 7.03 | O=S1(=O)N=C(NCc2ncco2)Nc2c(-c3cccc(F)c3Cl)cccc21 [Example 28, 5-(2-chloro-3-fluorophenyl)-3-((oxazol-2-ylmethyl)amino)-4H-benzo[e][1,2,4]thiadiazine 1,1-dioxide] |
| 52 nM | 7.055 | CCNC1=NS(=O)(=O)c2cccc(-c3cccc(F)c3Cl)c2N1 [Example 39, 5-(2-chloro-3-fluorophenyl)-3-(ethylamino)-4H-benzo[e][1,2,4]thiadiazine 1,1-dioxide] |
| 69.2 nM | 6.35 | CNC1=NS(=O)(=O)c2cccc(-c3cccc(F)c3C#N)c2N1 [Example 89, 2-fluoro-6-(3-(methylamino)-1,1-dioxido-4H-benzo[e][1,2,4]thiadiazin-5-yl)benzonitrile] |
| 21.6 nM | 6.78 | CCNC1=NS(=O)(=O)c2cc(F)cc(-c3cccc(F)c3Cl)c2N1 [Example 6, 5-(2-chloro-3-fluorophenyl)-3-(ethylamino)-7-fluoro-4H-benzo[e][1,2,4]thiadiazine 1,1-dioxide] |
| 102 nM | 6.47 | CNC1=NS(=O)(=O)c2cccc(-c3ccccc3Cl)c2N1 [Example 43, 5-(2-chlorophenyl)-3-(methylamino)-4H-benzo[e][1,2,4]thiadiazine 1,1-dioxide] |
| 13.6 nM | 7.45 | O=S1(=O)N=C(NCc2ncccc2F)Nc2c(-c3cccc(F)c3Cl)cccc21 [Example 12, 5-(2-chloro-3-fluorophenyl)-3-(((3-fluoropyridin-2-yl)methyl)amino)-4H-benzo[e][1,2,4]thiadiazine 1,1-dioxide] |
